Assay results: ChEMBL document CHEMBL5303573, “Mapping human microbiome drug metabolism by gut bacteria and their genes” (Nature, 2019)

Columns and labels:
[1] = The drug is tested on Bifidobacterium ruminantium strain: fecal isolate for biotransformation. The drug concentrations were measured before and after a 12-h incubation by liquid-chromatography-coupled mass spectrometry (LC–MS); conditions: 2 µM
[2] = The drug is tested on Alistipes indistinctus strain: DSM22520 for biotransformation. The drug concentrations were measured before and after a 12-h incubation by liquid-chromatography-coupled mass spectrometry (LC–MS); conditions: 2 µM
[3] = The drug is tested on Bacteroides coprophilus strain: DSM18228 for biotransformation. The drug concentrations were measured before and after a 12-h incubation by liquid-chromatography-coupled mass spectrometry (LC–MS); conditions: 2 µM
[4] = The drug is tested on Bacteroides dorei strain: DSM17855 for biotransformation. The drug concentrations were measured before and after a 12-h incubation by liquid-chromatography-coupled mass spectrometry (LC–MS); conditions: phocaeicola dorei, 2 µM
[5] = The drug is tested on Bacteroides finegoldii strain: DSM17565 for biotransformation. The drug concentrations were measured before and after a 12-h incubation by liquid-chromatography-coupled mass spectrometry (LC–MS); conditions: 2 µM
[6] = The drug is tested on Bacteroides uniformis strain: ATCC8492 for biotransformation. The drug concentrations were measured before and after a 12-h incubation by liquid-chromatography-coupled mass spectrometry (LC–MS); conditions: 2 µM
[7] = The drug is tested on Bacteroides vulgatus strain: ATCC8482 for biotransformation. The drug concentrations were measured before and after a 12-h incubation by liquid-chromatography-coupled mass spectrometry (LC–MS); conditions: phocaeicola vulgatus, 2 µM
[8] = The drug is tested on Parabacteroides merdae strain: ATCC43184 for biotransformation. The drug concentrations were measured before and after a 12-h incubation by liquid-chromatography-coupled mass spectrometry (LC–MS); conditions: 2 µM
[9] = The drug is tested on Anaerococcus hydrogenalis strain: DSM7454 for biotransformation. The drug concentrations were measured before and after a 12-h incubation by liquid-chromatography-coupled mass spectrometry (LC–MS); conditions: 2 µM
[10] = The drug is tested on Blautia hansenii strain: DSM20583 for biotransformation. The drug concentrations were measured before and after a 12-h incubation by liquid-chromatography-coupled mass spectrometry (LC–MS); conditions: 2 µM
[11] = The drug is tested on Clostridium ramosum strain: DSM1402 for biotransformation. The drug concentrations were measured before and after a 12-h incubation by liquid-chromatography-coupled mass spectrometry (LC–MS); conditions: thomasclavelia ramosa, 2 µM
[12] = The drug is tested on Coprococcus comes strain: ATCC27758 for biotransformation. The drug concentrations were measured before and after a 12-h incubation by liquid-chromatography-coupled mass spectrometry (LC–MS); assay type: ADME; parameters: dose 2 uM, timepoint 0 vs 12 hours; conditions: 2 µM
[13] = The drug is tested on Enterococcus faecalis strain: V583 for biotransformation. The drug concentrations were measured before and after a 12-h incubation by liquid-chromatography-coupled mass spectrometry (LC–MS); conditions: 2 µM
[14] = The drug is tested on Enterobacter cancerogenus strain: ATCC35316 for biotransformation. The drug concentrations were measured before and after a 12-h incubation by liquid-chromatography-coupled mass spectrometry (LC–MS); conditions: 2 µM
[15] = The drug is tested on Escherichia coli strain: BW25113 for biotransformation. The drug concentrations were measured before and after a 12-h incubation by liquid-chromatography-coupled mass spectrometry (LC–MS); conditions: 2 µM
[16] = bacteroides fragilis, 12 h, 2 µM
Description: The drug is tested on Bacteroides fragilis strain: DS-208 for biotransformation. The drug concentrations were measured before and after a 12-h incubation by liquid-chromatography-coupled mass spectrometry (LC–MS)

[17] = bacteroides thetaiotaomicron, 12 h, 2 µM
Description: The drug is tested on Bacteroides thetaiotaomicron strain: VPI-5482 for biotransformation. The drug concentrations were measured before and after a 12-h incubation by liquid-chromatography-coupled mass spectrometry (LC–MS)

[18] = bacteroides thetaiotaomicron, 12 h, 2 µM; remark: listed apart in the source
Description: The drug is tested on Bacteroides thetaiotaomicron strain: 7330 for biotransformation. The drug concentrations were measured before and after a 12-h incubation by liquid-chromatography-coupled mass spectrometry (LC–MS)

[19] = roseburia intestinalis, 12 h, 2 µM
Description: The drug is tested on Roseburia intestinalis strain: L1-82 for biotransformation. The drug concentrations were measured before and after a 12-h incubation by liquid-chromatography-coupled mass spectrometry (LC–MS)

[20] = victivallis vadensis, 12 h, 2 µM
Description: The drug is tested on Victivallis vadensis strain: ATCC BAA-548 for biotransformation. The drug concentrations were measured before and after a 12-h incubation by liquid-chromatography-coupled mass spectrometry (LC–MS)

SMILES	Bacterial Biotransformation [1]	Bacterial Biotransformation [2]	Bacterial Biotransformation [3]	Bacterial Biotransformation [4]	Bacterial Biotransformation [5]	Bacterial Biotransformation [6]	Bacterial Biotransformation [7]	Bacterial Biotransformation [8]	Bacterial Biotransformation [9]	Bacterial Biotransformation [10]	Bacterial Biotransformation [11]	Bacterial Biotransformation [12]	Bacterial Biotransformation [13]	Bacterial Biotransformation [14]	Bacterial Biotransformation [15]	Bacterial Biotransformation [16]	Bacterial Biotransformation [17]	Bacterial Biotransformation [18]	Bacterial Biotransformation [19]	Bacterial Biotransformation [20]
COc1ccc2[nH]c([S+]([O-])Cc3ncc(C)c(OC)c3C)nc2c1 (stereo not given) [OMEPRAZOLE]	Compound metabolized	Compound metabolized	Compound metabolized	Compound metabolized	Compound metabolized	Compound metabolized	Compound metabolized	Compound metabolized	Compound metabolized	Compound metabolized	Compound metabolized	Compound metabolized	Compound metabolized	Compound metabolized	Compound metabolized	Compound metabolized	Compound metabolized	Compound metabolized	Compound metabolized	Compound metabolized
COc1ccnc(C[S+]([O-])c2nc3ccc(OC(F)F)cc3[nH]2)c1OC (stereo not given) [PANTOPRAZOLE]	Compound metabolized	Compound metabolized	Compound metabolized	Compound metabolized	Compound metabolized	Compound metabolized	Compound metabolized	Compound metabolized	Compound metabolized	Compound metabolized	Compound metabolized	Compound metabolized	Compound metabolized	Compound metabolized	Compound metabolized	Compound metabolized	Compound metabolized	Compound metabolized	Compound metabolized	Compound metabolized
N[C@@H](Cc1ccc(N(CCCl)CCCl)cc1)C(=O)O	Compound metabolized	Compound metabolized	Compound metabolized	Compound metabolized	Compound metabolized	Compound metabolized	Compound metabolized	Compound metabolized	Compound metabolized	Compound metabolized	Compound metabolized	Compound metabolized	Compound metabolized	Compound metabolized	Compound metabolized	Compound metabolized	Compound metabolized	Compound metabolized	Compound metabolized	Compound metabolized
CCN(CC)CCOCCOC(=O)C1(c2ccccc2)CCCC1.O=C(O)CC(O)(CC(=O)O)C(=O)O [CARBETAPENTANE CITRATE]	Compound metabolized	Compound metabolized	Compound metabolized	Compound metabolized	Compound metabolized	Compound metabolized	Compound metabolized	Compound metabolized	Compound metabolized	Compound metabolized	Compound metabolized	Compound metabolized	Compound metabolized	Compound metabolized	Compound metabolized	Compound metabolized	Compound metabolized	Compound metabolized	Compound metabolized	Compound metabolized
C#C[C@]1(O)CC[C@H]2[C@@H]3CCC4=Cc5oncc5C[C@]4(C)[C@H]3CC[C@@]21C [DANAZOL]	Compound metabolized	Compound metabolized	Compound NOT metabolized	Compound metabolized	Compound metabolized	Compound metabolized	Compound metabolized	Compound metabolized	Compound metabolized	Compound metabolized	Compound metabolized	Compound metabolized	Compound metabolized	Compound metabolized	Compound metabolized	Compound metabolized	Compound metabolized	Compound metabolized	Compound metabolized	Compound metabolized
CCOc1ccc2nc(S(N)(=O)=O)sc2c1 [ETHOXZOLAMIDE]	Compound metabolized	Compound metabolized	Compound metabolized	Compound NOT metabolized	Compound metabolized	Compound metabolized	Compound NOT metabolized	Compound metabolized	Compound metabolized	Compound metabolized	Compound metabolized	Compound metabolized	Compound metabolized	Compound metabolized	Compound metabolized	Compound NOT metabolized	Compound metabolized	Compound metabolized	Compound metabolized	Compound metabolized
CC(Oc1c(Cl)cccc1Cl)C1=NCCN1 (stereo not given) [LOFEXIDINE]	Compound metabolized	Compound metabolized	Compound metabolized	Compound metabolized	Compound metabolized	Compound metabolized	Compound metabolized	Compound metabolized	Compound metabolized	Compound metabolized	Compound metabolized	Compound metabolized	Compound NOT metabolized	Compound metabolized	Compound metabolized	Compound NOT metabolized	Compound metabolized	Compound metabolized	Compound metabolized	Compound metabolized
CNC(=C[N+](=O)[O-])NCCSCc1csc(CN(C)C)n1 [NIZATIDINE]	Compound metabolized	Compound metabolized	Compound NOT metabolized	Compound metabolized	Compound metabolized	Compound NOT metabolized	Compound metabolized	Compound NOT metabolized	Compound metabolized	Compound metabolized	Compound metabolized	Compound NOT metabolized	Compound metabolized	Compound metabolized	Compound NOT metabolized	Compound metabolized	Compound NOT metabolized	Compound metabolized	Compound NOT metabolized	Compound NOT metabolized
